pIC50: −log10 of the molar value.
Columns and labels:
PBMC from CLL patients = assay: CellTiter-Blue cell viability assay, cell toxicity in PBMC from CLL patients; assay type: cell-based; settings: Homo sapiens, 50 000 cells/well, cultured 24, 48 and 72 h (time of the IC50 not stated), % cytotoxicity vs 0.2% DMSO
Method: (§1) Method for Measurement of Cell Toxicity
(§2) The CellTiter-Blue® Cell Viability Assay provides a homogeneous, fluorometric method for estimating the number of viable cells present in multi-well plates. The assay uses the indicator dye resazurin to measure the metabolic capacity of cells. Viable cells retain the ability to reduce resazurin into resorufin, which is highly fluorescent.
(§3) Stock solutions (10 or 100 mM in DMSO) of compounds were serially diluted 1:2 in 11 concentrations and 25 nL/well (100 mM stock) or 50 nL/well (10 mM stock) were acoustically dispensed in assay plates with an EDC acoustic dispenser. Final starting concentration in the assay was 20 μM (0.2% DMSO) or 100 μM (0.1% DMSO) for test compounds.
(§4) Peripheral blood mononuclear cells (PBMC) from CLL patients or healthy volunteers were seeded in assay plates (384-well black/clear, Greiner #781091) pre-dispensed with compounds, 25 μL/well, and cultured for 24, 48 and 72 h. The cell concentration was 50 000 cells/well for PBMC from CLL patients or healthy volunteers. After 24, 48 and 72 h culture, Celltiter Blue reagent was added (5 μL/well) and the plates were incubated for 2 h. The plates were read in an Envision fluorescence reader (PerkinElmer) with Ex544 nm/Em590 nm. Results were calculated as % cytotoxicity compared to background (cells treated with 0.2% DMSO).
(§5) Thus, IC50 values for cell toxicity in PBMC from CLL patients as well as healthy volunteers for some compounds of the invention are shown in Table 3.

[1] = CellTiter-Blue cell viability assay, cell toxicity in PBMC from healthy volunteers; assay type: cell-based; settings: human, 50 000 cells/well, cultured 24, 48 and 72 h (time of the IC50 not stated), % cytotoxicity vs 0.2% DMSO
Method: as §1, §2, §3, §4, §5

Row | SMILES | pIC50 (PBMC from CLL patients) | pIC50 [1]
1 | Cc1ccc(CN2CCC(Nc3c(Cl)cnc4[nH]c(-c5ccc(OCC(=O)NCC(C)(C)N(C)C)cc5)nc34)CC2)cc1 [Example 27, 2-[4-(6-chloro-7-{[1-(4-methylbenzyl)piperidin-4-yl]amino}-3H-imidazo[4,5-b]pyridin-2-yl)phenoxy]-N-[2-(dimethylamino)-2-methylpropyl]acetamide] | 5.85 | 4.85
2 | CC(=O)NCCOc1ccc(-c2nc3c(NC4CCN(C)CC4)c(Cl)cnc3[nH]2)cc1 [Example 265, N-[2-(4-{6-chloro-7-[(1-methylpiperidin-4-yl)amino]-3H-imidazo[4,5-b]pyridin-2-yl}phenoxy)ethyl] acetamide] | 6.59 | < 4.70
3 | CNC(=O)COc1ccc(-c2nc3c(NC4CCN(C5CCCCC5)CC4)c(Cl)cnc3[nH]2)cc1 [Example 56, 2-(4-{6-chloro-7-[(1-cyclohexylpiperidin-4-yl)amino]-3H-imidazo[4,5-b]pyridin-2-yl}phenoxy)-N-methylacetamide] | 6.43 | < 4.70
4 | CNC(=O)CNc1ccc(-c2nc3c(NC4CCN(C)CC4)c(Cl)cnc3[nH]2)cc1 [Example 294, N^2-(4-(6-chloro-7-[(1-methylpiperidin-4-yl)amino]-3H-imidazo[4,5-b]pyridin-2-yl}phenyl)-N-methylglycinamide] | 6.44 | < 4.70
5 | CNC(=O)COc1ccc(-c2nc3c(NC4CCN(Cc5ccccc5)CC4)c(Cl)cnc3[nH]2)cc1 [Example 11, 2-(4-{7-[(1-benzylpiperidin-4-yl)amino]-6-chloro-3H-imidazo[4,5-b]pyridin-2-yl}phenoxy)-N-methylacetamide] | 6.36 | 4.83
6 | CNC(=O)COc1ccc(-c2nc3c(N[C@H]4CCN(Cc5ccc(F)c(F)c5)C4)c(Cl)cnc3[nH]2)cc1 [Example 34, 2-[4-(6-chloro-7-{[(3S)-1-(3,4-difluorobenzyl)pyrrolidin-3-yl]amino}-3H-imidazo[4,5-b]pyridin-2-yl)phenoxy]-N-methylacetamide] | 5.51 | 4.75
7 | CNC(=O)COc1ccc(-c2nc3c(NC4CCN(Cc5c(C)nn(C)c5C)CC4)c(Br)cnc3[nH]2)cc1 [Example 288, 2-{4-[6-bromo-7-({1-[(1,3,5-trimethyl-1H-pyrazol-4-yl)methyl]piperidin-4-yl}amino)-3H-imidazo[4,5-b]pyridin-2-yl]phenoxy}-N-methylacetamide] | 6.40 | < 4.70

— patent publication US10550113B2, “2-phenyl-3H-imidazo[4,5-B]pyridine derivates useful as inhibitors of mammalian tyrosine kinase ROR1 activity” (Kancera AB, priority 2015, dated 2020)
